Reference: PubChem BioAssay AID1963979 (Molecular Pharmacology Branch, DTP, NCI, 2024)
Where “and” joins values, the source holds several entries; their conditions need not be identical. Equal entries are not always repeated.

Tested on: 361931-004-R-J1-PDC multicell spheroid viability
Test: Anticancer human tumor 361931-004-R-J1-PDC patient-derived colon adenocarcinoma cell line growth inhibition [PI3K]
Details: for viability, T/C: stronger effect = lower value
Text: Combinatorial screen of targeted agents with the PI3K inhibitors inavolisib, alpelisib, duvelisib, and copanlisib in multi-cell type tumor spheroids
A high-throughput screen of multi-cell type tumor spheroids was designed to identify active combinations of targeted small molecules and PI3K pathway inhibitors. Complex spheroids include a stromal component modeled by human endothelial cells (HUVEC) and fibroblasts modeled by human mesenchymal stem cells (MSCs). The concentration ranges selected for each drug and investigational agent were based upon clinically achievable concentrations if the clinical Cmax of the agent was known.
Compounds. The drugs and investigational agents: inavolisib (NSC800729), alpelisib (NSC765974), duvelisib (NSC772469), copanlisib (NSC816437), ipatasertib (NSC767898), afuresertib (NSC778305), talazoparib (NSC767125), sapanisertib (NSC764658), selumetinib (NSC741078), tovorafenib (DAY101, NSC766906), vemurafenib (NSC761431), ravoxertinib (NSC781343), sotorasib (NSC818433), MRTX1133 (NSC 836407), abemaciclib (NSC 768073), palbociclib (NSC758247), venetoclax (NSC 766270), SY5609 (NSC837396), enzalutamide (NSC755605), and darolutamide (NSC825331), were obtained from the National Cancer Institute (NCI) Developmental Therapeutics Program Chemical Repository. The FDA-approved anticancer drug set is available from the NCI Developmental Therapeutics Program. […] The stock solutions were prepared in dimethyl sulfoxide (DMSO, Sigma-Aldrich, St. Louis, MO, cat. D2650) at 800-fold the tested concentration and stored at -70 degrees C prior to their use. All drugs and investigational agents were tested over a range starting from a high concentration at or near the clinical Cmax and decreasing in half-log increments. If the clinical Cmax for an agent had not been determined, the highest concentration tested was 10 microM.
Cell Culture. All cells were maintained in an incubator at 37 degrees C and 5% CO2 with 95% humidity. The PDC lines were cultured according to standard operating procedures established by the NCI PDMR (https://pdmr.cancer.gov/sops/default.htm). All PDCs were thawed and cultured in Matrigel-coated flasks prepared with a working solution of 1X Ham's F-12 nutrient mix, without supplementation (Invitrogen, Waltham, MA, cat. 11765054), 100 U/mL penicillin-streptomycin (Invitrogen, cat. 15140122), and 2.5% Matrigel (Corning Inc., Corning, NY, cat. 354248) for the first three passages. The 354836-022-R-J1-PDC, 475296-252-R-J1-PDC, and 997726-040-R-J2-PDC lines were cultured in 6A media, which includes advanced DMEM/F-12 (Thermo Fisher Scientific, cat. 12634028), 10 mM HEPES (Thermo Fisher Scientific, cat. 15630080), 1X GlutaMAX supplement (Thermo Fisher Scientific, cat. 35050061), 0.1 mg/mL primocin (InvivoGen, San Diego, CA, cat. ant-pm-2), 10% defined fetal bovine serum, heat inactivated (HyClone Laboratories Inc., Logan, UT, cat. SH30070.03HI), 50% L-WRN conditioned media (ATCC, cat. CRL-3276), 1.25 mM N-Acetyl-L-cysteine (Sigma-Aldrich, cat. A9165), 10 mM nicotinamide (Sigma-Aldrich, cat. N0636), 1X B-27 supplement (Thermo Fisher Scientific, cat. 17504044), 1X N-2 supplement (Thermo Fisher Scientific, cat. 17502048), and 10 microM Y-27632 dihydrochloride (Tocris Bioscience, Bristol, United Kingdom, cat. 1254). The 624824-186-R-J2-PDC line was cultured in 6C/Colon 1B media, which includes all 6A media components plus 50 ng/mL human EGF recombinant protein (Thermo Fisher Scientific, cat. PHG0311). […]

[1] = curve of first compound, second compound 0.00316 µM
[2] = curve of first compound, second compound 0.01 µM
[3] = curve of first compound, second compound 0.0316 µM
[4] = curve of first compound, second compound 0.1 µM
[5] = curve of first compound, second compound 0.316 µM
[6] = curve of first compound, second compound 1 µM
[7] = second compound 0.00316 µM, first compound 0.0316 µM
[8] = second compound 0.00316 µM, first compound 0.1 µM
[9] = second compound 0.01 µM, first compound 0.0316 µM
[10] = second compound 0.01 µM, first compound 0.1 µM
[11] = second compound 0.0316 µM, first compound 0.0316 µM
[12] = second compound 0.0316 µM, first compound 0.1 µM
[13] = second compound 0.1 µM, first compound 0.0316 µM
[14] = second compound 0.1 µM, first compound 0.1 µM
[15] = second compound 0.316 µM, first compound 0.0316 µM
[16] = second compound 0.316 µM, first compound 0.1 µM
[17] = second compound 1 µM, first compound 0.0316 µM
[18] = second compound 1 µM, first compound 0.1 µM
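Also: spheroids exposed to agents for seven days before readout.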

`CCCS(=O)(=O)Nc1ccc(F)c(C(=O)c2c[nH]c3ncc(-c4ccc(Cl)cc4)cc23)c1F` was tested, and the viability, T/C (compound 0.0316 µM) was 103% (2×) and 94% and 108%, the viability, T/C (compound 0.1 µM) was 103% and 101% (2×) and 98.4% and the viability, T/C (compound 0.316 µM) was 97.1% [middle of 4 runs]. For the same compound, the viability, T/C (compound 1 µM) was 92.3% [middle of 4 runs], the viability, T/C (compound 3.16 µM) was 82% [middle of 4 runs] and the viability, T/C (compound 10 µM) was 8.31% [middle of 4 runs]. For the same compound, the IC50 (curve of compound) was 5.1 µM [middle of 4 runs].

Work on `CC(C)n1nc(-c2ccc3oc(N)nc3c2)c2c(N)ncnc21` + COc1c(OCCCN2CCOCC2)ccc2c3n(c(=NC(=O)c4cnc(N)nc4)nc12)CCN3 yielded an IC50 [1] greater than 100 nM, an IC50 [2] greater than 100 nM and an IC50 [3] of 78.3 nM. It also gave an IC50 [4] of 51.8 nM, an IC50 [5] of 4.51 nM and an IC50 [6] of less than 0.316 nM. For the same compound, the viability, T/C (second compound 0.00316 µM, first compound 0.000316 µM) was 99.9%, the viability, T/C (second compound 0.00316 µM, first compound 0.001 µM) was 108% and the viability, T/C (second compound 0.00316 µM, first compound 0.00316 µM) was 101%. It also gave a viability, T/C (second compound 0.00316 µM, first compound 0.01 µM) of 106%, a viability, T/C [7] of 108% and a viability, T/C [8] of 77.5%. The viability, T/C (second compound 0.01 µM, first compound 0.000316 µM) was 106%, the viability, T/C (second compound 0.01 µM, first compound 0.001 µM) was 102% and the viability, T/C (second compound 0.01 µM, first compound 0.00316 µM) was 99.3%. It also gave a viability, T/C (second compound 0.01 µM, first compound 0.01 µM) of 100%, a viability, T/C [9] of 99.2% and a viability, T/C [10] of 57.6%. The viability, T/C (second compound 0.0316 µM, first compound 0.000316 µM) was 94.1%, the viability, T/C (second compound 0.0316 µM, first compound 0.001 µM) was 98.7% and the viability, T/C (second compound 0.0316 µM, first compound 0.00316 µM) was 89.2%. The viability, T/C (second compound 0.0316 µM, first compound 0.01 µM) was 94.2%, the viability, T/C [11] was 85.6% and the viability, T/C [12] was 40.4%. The viability, T/C (second compound 0.1 µM, first compound 0.000316 µM) was 80.8%, the viability, T/C (second compound 0.1 µM, first compound 0.001 µM) was 85.5% and the viability, T/C (second compound 0.1 µM, first compound 0.00316 µM) was 79%. It also gave a viability, T/C (second compound 0.1 µM, first compound 0.01 µM) of 72.8%, a viability, T/C [13] of 62.9% and a viability, T/C [14] of 34.1%. The viability, T/C (second compound 0.316 µM, first compound 0.000316 µM) was 64.7%, the viability, T/C (second compound 0.316 µM, first compound 0.001 µM) was 56.3% and the viability, T/C (second compound 0.316 µM, first compound 0.00316 µM) was 54.2%. The viability, T/C (second compound 0.316 µM, first compound 0.01 µM) was 43.9%, the viability, T/C [15] was 35.5% and the viability, T/C [16] was 22.4%. It also gave a viability, T/C (second compound 1 µM, first compound 0.000316 µM) of 20.8%, a viability, T/C (second compound 1 µM, first compound 0.001 µM) of 20.7% and a viability, T/C (second compound 1 µM, first compound 0.00316 µM) of 22.3%. For the same compound, the viability, T/C (second compound 1 µM, first compound 0.01 µM) was 20.9%, the viability, T/C [17] was 20.2% and the viability, T/C [18] was 10.6%.

With `C=CC(=O)N1CCN(c2nc(=O)n(-c3c(C)ccnc3C(C)C)c3nc(-c4c(O)cccc4F)c(F)cc23)C(C)C1` (stereo unspecified) + COc1c(OCCCN2CCOCC2)ccc2c3n(c(=NC(=O)c4cnc(N)nc4)nc12)CCN3 the IC50 [1] was greater than 10000 nM, the IC50 [2] was greater than 10000 nM and the IC50 [3] was greater than 10000 nM. It also gave an IC50 [4] greater than 10000 nM, an IC50 [5] of 31.6 nM and an IC50 [6] of less than 31.6 nM. For the same compound, the viability, T/C [7] was 97.7%, the viability, T/C [8] was 100% and the viability, T/C (second compound 0.00316 µM, first compound 0.316 µM) was 100%. For the same compound, the viability, T/C (second compound 0.00316 µM, first compound 1 µM) was 98.7%, the viability, T/C (second compound 0.00316 µM, first compound 3.16 µM) was 99.9% and the viability, T/C (second compound 0.00316 µM, first compound 10 µM) was 90.1%. For the same compound, the viability, T/C [9] was 98%, the viability, T/C [10] was 95% and the viability, T/C (second compound 0.01 µM, first compound 0.316 µM) was 92.6%. The viability, T/C (second compound 0.01 µM, first compound 1 µM) was 94.4%, the viability, T/C (second compound 0.01 µM, first compound 3.16 µM) was 103% and the viability, T/C (second compound 0.01 µM, first compound 10 µM) was 89%. It also gave a viability, T/C [11] of 94.6%, a viability, T/C [12] of 89.5% and a viability, T/C (second compound 0.0316 µM, first compound 0.316 µM) of 90.6%. It also gave a viability, T/C (second compound 0.0316 µM, first compound 1 µM) of 94.7%, a viability, T/C (second compound 0.0316 µM, first compound 3.16 µM) of 91.6% and a viability, T/C (second compound 0.0316 µM, first compound 10 µM) of 82.4%. It also gave a viability, T/C [13] of 83.8%, a viability, T/C [14] of 80.3% and a viability, T/C (second compound 0.1 µM, first compound 0.316 µM) of 77.8%. The viability, T/C (second compound 0.1 µM, first compound 1 µM) was 76%, the viability, T/C (second compound 0.1 µM, first compound 3.16 µM) was 78.8% and the viability, T/C (second compound 0.1 µM, first compound 10 µM) was 54.9%. The viability, T/C [15] was 48.7%, the viability, T/C [16] was 49.8% and the viability, T/C (second compound 0.316 µM, first compound 0.316 µM) was 47.1%. The viability, T/C (second compound 0.316 µM, first compound 1 µM) was 39.5%, the viability, T/C (second compound 0.316 µM, first compound 3.16 µM) was 51.1% and the viability, T/C (second compound 0.316 µM, first compound 10 µM) was 32.8%. The viability, T/C [17] was 20.4%, the viability, T/C [18] was 22.1% and the viability, T/C (second compound 1 µM, first compound 0.316 µM) was 15.4%. The viability, T/C (second compound 1 µM, first compound 1 µM) was 20.2%, the viability, T/C (second compound 1 µM, first compound 3.16 µM) was 18.3% and the viability, T/C (second compound 1 µM, first compound 10 µM) was 12.4%.
